Reference: the supplement of paper PMC10307832

Key:
Experiment in all cases: relative viability (nuclei count vs DMSO), 5 days (fraction); higher = more cells survive
[1] = compound: COc1cc2ncn(-c3cc(OCc4ccccc4C(F)(F)F)c(C(N)=O)s3)c2cc1OC
Procedure, shortened: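 Lung cancer cell lines were seeded into 1536-well plates, kept overnight at 37 °C and pinned with five library-drug doses (not always all listed) spaced by √10. After 5 days, nuclei were Hoechst-stained, imaged at 4× and counted with MetaXpress. Viability is treated-well nuclei over vehicle-well nuclei, taken as a median across plates. Plates needed control CV below 25% and at least one doubling.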

[2] = compound: COc1cc2ncn(-c3cc(OCc4ccccc4C(F)(F)F)c(C(N)=O)s3)c2cc1OC + CC(=O)c1c(C)c2cnc(Nc3ccc(N4CCNCC4)cn3)nc2n(C2CCCC2)c1=O [Palbociclib] (partner 0.5 µM)
Procedure, shortened: (§1)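 Values are medians from duplicate plates. Each reflects relative viability, defined as the nuclei count of treated wells over that of vehicle wells. Lung cancer cell lines in 1536-well plates were pin-tool dosed one day after seeding with one drug alone or with a fixed anchor-drug dose plus five library-drug doses (not always all listed) in √10 steps, then fixed, stained and imaged at 4× after 5 days.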

[3] = compound: COc1cc2ncn(-c3cc(OCc4ccccc4C(F)(F)F)c(C(N)=O)s3)c2cc1OC + COc1cc2c(Oc3ccc(NC(=O)C4(C(=O)Nc5ccc(F)cc5)CC4)cc3F)ccnc2cc1OCCCN1CCOCC1 [Foretinib] (partner 0.25 µM)
Procedure, shortened: as §1

[4] = compound: COc1cc2ncn(-c3cc(OCc4ccccc4C(F)(F)F)c(C(N)=O)s3)c2cc1OC + COc1cccc2cc(-c3nc([C@H]4CC[C@H](C(=O)O)CC4)n4ncnc(N)c34)[nH]c12 [OSI-027] (partner 0.5 µM)
Procedure, shortened: as §1

NCI-H661 was tested, and the relative viability ([1]; 0.05 µM) was 0.979, the relative viability ([1]; 0.1581 µM) was 0.998 and the relative viability ([1]; 0.5 µM) was 0.685. For the same cell line, the relative viability ([1]; 1.581 µM) was 0.348, the relative viability ([1]; 5 µM) was 0.333 and the relative viability ([2]; first compound 0.05 µM) was 0.441. The relative viability ([2]; first compound 0.1581 µM) was 0.428, the relative viability ([2]; first compound 0.5 µM) was 0.335 and the relative viability ([2]; first compound 1.581 µM) was 0.248. For the same cell line, the relative viability ([2]; first compound 5 µM) was 0.241, the relative viability ([3]; first compound 0.05 µM) was 0.908 and the relative viability ([3]; first compound 0.1581 µM) was 0.866. For the same cell line, the relative viability ([3]; first compound 0.5 µM) was 0.854, the relative viability ([3]; first compound 1.581 µM) was 0.322 and the relative viability ([3]; first compound 5 µM) was 0.27. The relative viability ([4]; first compound 0.05 µM) was 0.755, the relative viability ([4]; first compound 0.1581 µM) was 0.581 and the relative viability ([4]; first compound 0.5 µM) was 0.53. For the same cell line, the relative viability ([4]; first compound 1.581 µM) was 0.191 and the relative viability ([4]; first compound 5 µM) was 0.174.
With NCI-H727 the relative viability ([1]; 0.05 µM) was 0.991, the relative viability ([1]; 0.1581 µM) was 0.752 and the relative viability ([1]; 0.5 µM) was 0.687. For the same cell line, the relative viability ([1]; 1.581 µM) was 0.395, the relative viability ([1]; 5 µM) was 0.417 and the relative viability ([2]; first compound 0.05 µM) was 0.701. It also gave a relative viability ([2]; first compound 0.1581 µM) of 0.716, a relative viability ([2]; first compound 0.5 µM) of 0.608 and a relative viability ([2]; first compound 1.581 µM) of 0.547. It also gave a relative viability ([2]; first compound 5 µM) of 0.628, a relative viability ([3]; first compound 0.05 µM) of 0.929 and a relative viability ([3]; first compound 0.1581 µM) of 0.941. It also gave a relative viability ([3]; first compound 0.5 µM) of 0.639, a relative viability ([3]; first compound 1.581 µM) of 0.309 and a relative viability ([3]; first compound 5 µM) of 0.476. For the same cell line, the relative viability ([4]; first compound 0.05 µM) was 0.684, the relative viability ([4]; first compound 0.1581 µM) was 0.692 and the relative viability ([4]; first compound 0.5 µM) was 0.457. The relative viability ([4]; first compound 1.581 µM) was 0.516 and the relative viability ([4]; first compound 5 µM) was 0.407.
NCI-H838 showed a relative viability ([1]; 0.05 µM) of 0.971, a relative viability ([1]; 0.1581 µM) of 1.03 and a relative viability ([1]; 0.5 µM) of 0.764. For the same cell line, the relative viability ([1]; 1.581 µM) was 0.176, the relative viability ([1]; 5 µM) was 0.153 and the relative viability ([2]; first compound 0.05 µM) was 0.255. The relative viability ([2]; first compound 0.1581 µM) was 0.231, the relative viability ([2]; first compound 0.5 µM) was 0.161 and the relative viability ([2]; first compound 1.581 µM) was 0.111. For the same cell line, the relative viability ([2]; first compound 5 µM) was 0.0913, the relative viability ([3]; first compound 0.05 µM) was 1.17 and the relative viability ([3]; first compound 0.1581 µM) was 1.09. For the same cell line, the relative viability ([3]; first compound 0.5 µM) was 0.832, the relative viability ([3]; first compound 1.581 µM) was 0.455 and the relative viability ([3]; first compound 5 µM) was 0.139. The relative viability ([4]; first compound 0.05 µM) was 0.385, the relative viability ([4]; first compound 0.1581 µM) was 0.424 and the relative viability ([4]; first compound 0.5 µM) was 0.292. It also gave a relative viability ([4]; first compound 1.581 µM) of 0.231 and a relative viability ([4]; first compound 5 µM) of 0.123.
NCI-H1355 was tested, and the relative viability ([1]; 0.05 µM) was 0.974, the relative viability ([1]; 0.1581 µM) was 0.957 and the relative viability ([1]; 0.5 µM) was 0.534. The relative viability ([1]; 1.581 µM) was 0.197, the relative viability ([1]; 5 µM) was 0.185 and the relative viability ([2]; first compound 0.05 µM) was 0.271. It also gave a relative viability ([2]; first compound 0.1581 µM) of 0.423, a relative viability ([2]; first compound 0.5 µM) of 0.345 and a relative viability ([2]; first compound 1.581 µM) of 0.186. The relative viability ([2]; first compound 5 µM) was 0.152, the relative viability ([3]; first compound 0.05 µM) was 0.935 and the relative viability ([3]; first compound 0.1581 µM) was 0.888. The relative viability ([3]; first compound 0.5 µM) was 0.642, the relative viability ([3]; first compound 1.581 µM) was 0.218 and the relative viability ([3]; first compound 5 µM) was 0.139. It also gave a relative viability ([4]; first compound 0.05 µM) of 0.433, a relative viability ([4]; first compound 0.1581 µM) of 0.367 and a relative viability ([4]; first compound 0.5 µM) of 0.223. It also gave a relative viability ([4]; first compound 1.581 µM) of 0.177 and a relative viability ([4]; first compound 5 µM) of 0.126.
NCI-H1395 was tested, and the relative viability ([1]; 0.05 µM) was 0.964, the relative viability ([1]; 0.1581 µM) was 0.925 and the relative viability ([1]; 0.5 µM) was 0.68. The relative viability ([1]; 1.581 µM) was 0.4, the relative viability ([1]; 5 µM) was 0.314 and the relative viability ([2]; first compound 0.05 µM) was 0.614. The relative viability ([2]; first compound 0.1581 µM) was 0.763, the relative viability ([2]; first compound 0.5 µM) was 0.507 and the relative viability ([2]; first compound 1.581 µM) was 0.377. For the same cell line, the relative viability ([2]; first compound 5 µM) was 0.28, the relative viability ([3]; first compound 0.05 µM) was 0.932 and the relative viability ([3]; first compound 0.1581 µM) was 1.01. For the same cell line, the relative viability ([3]; first compound 0.5 µM) was 0.686, the relative viability ([3]; first compound 1.581 µM) was 0.448 and the relative viability ([3]; first compound 5 µM) was 0.556. It also gave a relative viability ([4]; first compound 0.05 µM) of 0.63, a relative viability ([4]; first compound 0.1581 µM) of 0.675 and a relative viability ([4]; first compound 0.5 µM) of 0.547. The relative viability ([4]; first compound 1.581 µM) was 0.354 and the relative viability ([4]; first compound 5 µM) was 0.323.
Work on NCI-H1437 yielded a relative viability ([1]; 0.05 µM) of 1.02, a relative viability ([1]; 0.1581 µM) of 0.898 and a relative viability ([1]; 0.5 µM) of 0.507. The relative viability ([1]; 1.581 µM) was 0.21, the relative viability ([1]; 5 µM) was 0.18 and the relative viability ([2]; first compound 0.05 µM) was 0.3. It also gave a relative viability ([2]; first compound 0.1581 µM) of 0.279, a relative viability ([2]; first compound 0.5 µM) of 0.253 and a relative viability ([2]; first compound 1.581 µM) of 0.206. It also gave a relative viability ([2]; first compound 5 µM) of 0.192, a relative viability ([3]; first compound 0.05 µM) of 1.38 and a relative viability ([3]; first compound 0.1581 µM) of 1.17. For the same cell line, the relative viability ([3]; first compound 0.5 µM) was 0.456, the relative viability ([3]; first compound 1.581 µM) was 0.267 and the relative viability ([3]; first compound 5 µM) was 0.194. The relative viability ([4]; first compound 0.05 µM) was 0.958, the relative viability ([4]; first compound 0.1581 µM) was 0.79 and the relative viability ([4]; first compound 0.5 µM) was 0.298. It also gave a relative viability ([4]; first compound 1.581 µM) of 0.142 and a relative viability ([4]; first compound 5 µM) of 0.118.
For NCI-H1650, the relative viability ([1]; 0.05 µM) was 0.899, the relative viability ([1]; 0.1581 µM) was 0.951 and the relative viability ([1]; 0.5 µM) was 0.396. The relative viability ([1]; 1.581 µM) was 0.19, the relative viability ([1]; 5 µM) was 0.147 and the relative viability ([2]; first compound 0.05 µM) was 0.295. For the same cell line, the relative viability ([2]; first compound 0.1581 µM) was 0.329, the relative viability ([2]; first compound 0.5 µM) was 0.234 and the relative viability ([2]; first compound 1.581 µM) was 0.146. It also gave a relative viability ([2]; first compound 5 µM) of 0.141, a relative viability ([3]; first compound 0.05 µM) of 1.04 and a relative viability ([3]; first compound 0.1581 µM) of 1.01. It also gave a relative viability ([3]; first compound 0.5 µM) of 1.08, a relative viability ([3]; first compound 1.581 µM) of 0.13 and a relative viability ([3]; first compound 5 µM) of 0.139. It also gave a relative viability ([4]; first compound 0.05 µM) of 0.503, a relative viability ([4]; first compound 0.1581 µM) of 0.654 and a relative viability ([4]; first compound 0.5 µM) of 0.208. The relative viability ([4]; first compound 1.581 µM) was 0.134 and the relative viability ([4]; first compound 5 µM) was 0.149.
NCI-H1651 was tested, and the relative viability ([1]; 0.05 µM) was 1.05, the relative viability ([1]; 0.1581 µM) was 0.992 and the relative viability ([1]; 0.5 µM) was 0.77. For the same cell line, the relative viability ([1]; 1.581 µM) was 0.398, the relative viability ([1]; 5 µM) was 0.221 and the relative viability ([2]; first compound 0.05 µM) was 0.535. For the same cell line, the relative viability ([2]; first compound 0.1581 µM) was 0.492, the relative viability ([2]; first compound 0.5 µM) was 0.481 and the relative viability ([2]; first compound 1.581 µM) was 0.484. The relative viability ([2]; first compound 5 µM) was 0.397, the relative viability ([3]; first compound 0.05 µM) was 0.832 and the relative viability ([3]; first compound 0.1581 µM) was 0.893. For the same cell line, the relative viability ([3]; first compound 0.5 µM) was 0.655, the relative viability ([3]; first compound 1.581 µM) was 0.118 and the relative viability ([3]; first compound 5 µM) was 0.102. For the same cell line, the relative viability ([4]; first compound 0.05 µM) was 0.762, the relative viability ([4]; first compound 0.1581 µM) was 0.737 and the relative viability ([4]; first compound 0.5 µM) was 0.594. For the same cell line, the relative viability ([4]; first compound 1.581 µM) was 0.145 and the relative viability ([4]; first compound 5 µM) was 0.0994.
